Article PMC8230370, “Antiproliferative Illudalane Sesquiterpenes from the Marine Sediment Ascomycete Aspergillus oryzae” (Marine Drugs, 2021)
“Also recorded” adds a separate entry of the source. Like-named read-outs stand apart in the source and are kept apart here.

Experiments:
[1] = system: HepG2 (liver) cancer cells; experiment: MTT antiproliferative assay, HepG2 liver carcinoma; type: cell-based, human; details: 48 h incubation, read-out: IC50 for the Different Carcinoma Cell Lines, HepG2 (Liver)
Protocol: (§1) The antiproliferative activity of compounds was measured using MTT (3-(4, 5-dimethylthiazol-2-yl)-2,5-diphenyltetrazolium bromide) assay. A549 (lung), HepG2 (liver), and MCF-7 (breast) cancer cells were purchased from the American Type Cell Collection (ATCC, Manassas, VA, USA). The cells were seeded at 5 × 10^4 cells/well (in 100 μL of DMEM) in 96-well microplates. After 24 h incubation at 37 °C, serial dilution (15–250 µM) of each compound was added and incubated for 48 h. Thereafter, 10 μL of the MTT solution (5 mg/mL) was added to each well. After 4 h incubation with the MTT solution, a volume of 100 μL of acidified isopropanol was added to solubilize the formazan product and incubated on a shaker for a further 10 min. Reduced MTT was assayed at 570 nm using a microplate reader (BioTek, Winoosky, VT, USA). Control groups received the same amount of DMSO (0.1%), untreated cells were used as a negative control, whereas cells treated with doxorubicin were used as a positive control. The IC50 (concentration that caused more than 50% inhibition of proliferation) was calculated from a dose-dependent curve. The cell viability percent was calculated = mean absorbance of treated sample/mean absorbance of control ×100.

A549 (lung) cancer cells = experiment: MTT antiproliferative assay, A549 lung carcinoma; type: cell-based, human; details: 48 h incubation, read-out: IC50 for the Different Carcinoma Cell Lines, A549 (Lung)
Protocol: as §1

zebrafish embryos = experiment: Zebrafish embryo toxicity screening; type: in vivo; details: for observable toxicity / development of treated zebrafish embryos: up to 3 days post treatment
Excerpt: Wild-type zebrafish strain AB/Tuebingen TAB-14(AB/TuebingenTAB-14) (Catalog ID: ZL1438) were obtained from zebrafish international resource center and grown in an animal facility at the Department of Zoology, King Saud University, Riyadh, Kingdom of Saudi Arabia. The fish were maintained and bred following guidelines of the Institutional Animal Care and Use Committee (ICUAC) and zebrafish book. The fertilized embryos were obtained by natural pairwise breeding of adult fish. The fertilized embryos were sorted, dead embryos were removed, and synchronous stage embryos were used for screening.
A stock solution of 25 mM was made by dissolving the compounds in molecular biology grade DMSO (Sigma Aldrich, St. Louis, MI, USA). Zebrafish embryos were exposed to serial dilution (1, 5, 15, 45, 150, and 300 µM) of each compound. The embryos were remained exposed to the compounds for 3 days, and the embryos medium containing the compounds were changed every day. The response of the embryos toward mortality, and embryonic toxicity (teratogenicity) was monitored once after 12 h and then after every 24 h until the end of the experiment. The experiment was repeated at least three times (triplicate biological repeats) by using a new batch of embryos every time. LC50 for zebrafish embryonic toxicity was calculated by using an updated Probit analysis by Finney method.

[2] = system: MCF-7 (breast) cancer cells; experiment: MTT antiproliferative assay, MCF-7 breast carcinoma; type: cell-based, human; details: 48 h incubation, MCF-7 cells, read-out: IC50 for the Different Carcinoma Cell Lines, MCF-7 (Breast)
Protocol: as §1

Structure (SMILES) | IC50 [1] [µM] | IC50 ([1]; Homo sapiens, HepG2, 48 h) [µM] | IC50 (A549 (lung) cancer cells) [µM] | IC50 (A549 (lung) cancer cells; Homo sapiens, A549, 48 h) [µM] | toxicity in zebrafish embryos (zebrafish embryos; more than 200 µM compound, after 2 days post treatment) | IC50 [2] [µM] | IC50 ([2]; Homo sapiens, MCF7, 48 h) [µM] | observable toxicity / development of treated zebrafish embryos (zebrafish embryos) | death of treated embryos (zebrafish embryos; after 24 h post treatment, initial development normal) [%]
Cc1c2c(cc3c1[C@@H](O)COC3=O)CC(C)(C)C2 [Compound 1, asperorlactone] | 86.6 ± 3.2 | < 100 | 72.7 ± 1.1 | < 100 | cardiac toxicity (cardiac edema and cardiac hypertrophy | 106 ± 4.2 | < 100 |  | 
Cc1c2c(cc3c1CCOC3=O)C[C@](C)(CO)C2 [Compound 2, echinolactone D] |  | 148 ± 5.6 |  | 55.7 ± 2.5 |  |  | 128 ± 2.8 | did not exhibit any observable toxicity; also recorded: developed normally | 
O=c1cc(CO)c(O)co1 [Compound 3, 4-(hydroxymethyl)-5-hydroxy-2H-pyran-2-one] |  | 220 ± 3.6 |  | 208 ± 6.8 |  |  | 225 ± 5.1 | did not exhibit any observable toxicity; also recorded: developed normally | 
CC(=O)OCc1cc(=O)occ1O [Compound 4, (5-hydroxy-2-oxo-2H-pyran-4-yl)methyl acetate] |  | 127 ± 6.4 |  | 89.4 ± 2.3 |  |  | 171 ± 4.5 | found dead on day 2 | 100
O=Cc1ccc(O)cc1 [Compound 5, 4-hydroxybenzaldehyde] |  | 243 ± 6.4 |  | 97.5 ± 2.6 |  |  | 158 ± 5.5 | did not exhibit any observable toxicity; also recorded: developed normally | 
COc1cccc2c1C(=O)c1c(O)c3c(c(O)c1C2=O)C[C@@](O)(C(=O)CO)C[C@@H]3O[C@H]1C[C@H](N)[C@H](O)[C@H](C)O1 [Doxorubicin, doxorubicin, reference compound] |  | 2.2 ± 0.15 |  | 2.1 ± 0.08 |  |  | 1.9 ± 0.05 |  | 
